Assay results published in PubChem BioAssay AID1919006 (Molecular Pharmacology Branch, DTP, NCI, 2023).
pIC50: −log10 of the molar value. “And” between values parts separate entries of the source, which are not always exact repeats. Equal entries are not always repeated.

System: 885512-296-R-J2-PDC complex spheroid growth, % test/control
Experiment: Anticancer human tumor 885512-296-R-J2-PDC patient-derived breast carcinoma cell line growth inhibition [AhR]
Conditions: for viability, T/C: stronger effect = lower value
Excerpt: Multicellular complex tumor spheroid response to aryl hydrocarbon receptor antagonists in combination with a variety of drugs and investigational agents in selected tumor cell lines
The current study was undertaken to assess response to aryl hydrocarbon receptor antagonists in combination with standard-of-care drugs and investigational agents in solid tumor complex spheroid models. Complex spheroids include a stromal component modeled by human endothelial cells (HUVEC) and fibroblasts modeled by human mesenchymal stem cells (MSCs). The concentration ranges selected for each drug and investigational agent were based upon clinically achievable concentrations if the clinical Cmax of the agent was known.
Compounds. The drugs and investigational agents: BAY 2416964 (NSC825713), GNF351 (NSC835774), CH-223191 (NSC835775), CPI-455 (NSC825282), aza-TdCyd (NSC777586), decitabine (NSC127716), belinostat (NSC758774), entinostat (NSC756642), pevonedistat (NSC761192), tazemetostat (NSC777109), talazoparib (NSC765396), olaparib (NSC753686), selinexor (NSC780203), nedisertib (M3814, NSC802822), bortezomib (NSC756655), venetoclax (NSC766270), doxorubicin (NSC123127), elimusertib (BAY189344, NSC800525), ceralasertib (AZD6738, NSC777638), TAK-243 (NSC785004), alisertib (NSC759677), etoposide (NSC141540), topotecan (NSC609699), eribulin (NSC707389), gemcitabine (NSC613327), carboplatin (NSC241240), cisplatin (NSC119875), and SN-38 (NSC673596) were obtained from the National Cancer Institute (NCI) Developmental Therapeutics Program Chemical Repository (32). The FDA-approved anticancer drug set is available from the Developmental Therapeutics Program at https://dtp.cancer.gov/organization/dscb/obtaining/available plates.htm. […] The stock solutions were prepared in dimethyl sulfoxide (DMSO, Sigma-Aldrich, St. Louis, MO, cat. D2650), except for the platinum compounds which were prepared in saline (Quality Biological, Gaithersburg, MD, cat. 114-055-101), at 800-fold the tested concentration and stored at -70 degrees C prior to their use. All drugs and investigational agents were tested over a range starting from a high concentration at or near the clinical Cmax and decreasing in half-log increments. If the clinical Cmax for an agent had not been determined, the highest concentration tested was 10 microM (Table 1).
Cell Culture. All cells were maintained in an incubator at 37 degrees C and 5% CO2 with 95% humidity. The PDC lines were cultured according to standard operating procedures established by the NCI PDMR (https://pdmr.cancer.gov). Briefly, all PDCs were thawed and cultured in Matrigel-coated flasks prepared with a working solution of 1X Ham's F-12 nutrient mix, without supplementation (Invitrogen, Waltham, MA, cat. 11765054), 100 U/mL penicillin-streptomycin (Invitrogen, cat. 15140122), and 2.5% Matrigel (Corning Inc., Corning, NY, cat. 354248) for the first three passages. All PDCs were cultured in complete DMEM/F-12 media containing advanced DMEM/F-12 (Invitrogen, cat. 12634028), 4.9% defined fetal bovine serum, heat inactivated (HyClone Laboratories Inc., Logan, UT, cat. SH30070.03HI), 389 ng/mL hydrocortisone (Sigma-Aldrich, cat. H4001), 9.7 ng/mL human EGF recombinant protein (Invitrogen, cat. PHG0313), 23.4 microg/mL adenine (Sigma-Aldrich, cat. A2786), 97.3 U/mL penicillin-streptomycin (Invitrogen, cat. 15140122), 1.9 mM L-glutamine (Invitrogen, cat. 25030081), and 9.7 microM Y-27632 dihydrochloride (Tocris Bioscience, Bristol, United Kingdom, cat. 1254). The PDCs were cultured in complete DMEM/F12 media without 10 microM Y-27632 dihydrochloride for at least two passages prior to the screen. The established cell lines NCI-H1341 and […] were cultured in DMEM/F-12, HEPES (Invitrogen, cat. 11330032), 5% defined fetal bovine serum (HyClone Laboratories Inc., cat. SH30070.03), ITS premix universal culture supplement [insulin (5 microg/mL), transferrin (5 microg/mL), and selenious acid (5 ng/mL)] […]
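Note: spheroids exposed to compounds for seven days.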

| SMILES | pIC50 (curve of compound) | viability, T/C (compound 0.0316 µM) | viability, T/C (compound 0.1 µM) | viability, T/C (compound 0.316 µM) | viability, T/C (compound 1 µM) | viability, T/C (compound 3.16 µM) | viability, T/C (compound 10 µM) | other results |
| --- | --- | --- | --- | --- | --- | --- | --- | --- |
| CC(C)CC(NC(=O)C(Cc1ccccc1)NC(=O)c1cnccn1)B(O)O (stereo not given) | 8.23 and 8.20 and 8.30 | – | – | – | – | – | – | viability, T/C (compound 0.000949 µM): 106% and 93.4% and 96.8%; viability, T/C (compound 0.003 µM): 94.4% and 94.7% and 83.5%; viability, T/C (compound 0.00949 µM): 19.2% and 26.2% and 9.11%; viability, T/C (compound 0.03 µM): 1.45% and 1.42% and 0.86%; viability, T/C (compound 0.0949 µM): 0.43% and 0.3% and 0.26%; viability, T/C (compound 0.3 µM): 0.27% and 0.21% and 0.15% |
| CC(C)c1c(-c2ccccc2)nc2c(C#N)c[nH]n2c1=O | < 5.00 | 93.1% and 105% and 113% | 103% and 96.8% and 99.5% | 107% and 97.7% and 89% | 95.2% and 98.4% and 113% | 96.8% and 100% (2×) | 90.8% and 92% and 95.9% | – |
| CC(CO)NC(=O)c1cc(-c2ccc(Cl)cc2)nn(-c2cnn(C)c2)c1=O (stereo not given) | – | – | – | 96.5% [middle of 21 runs] | 98.8% [middle of 21 runs] | – | 93.9% [middle of 19 runs] | pIC50 (compound alone, run of 08/08/2022): < 5.00 |
| CC1(C)CCC(CN2CCN(c3ccc(C(=O)NS(=O)(=O)c4ccc(NCC5CCOCC5)c([N+](=O)[O-])c4)c(Oc4cnc5[nH]ccc5c4)c3)CC2)=C(c2ccc(Cl)cc2)C1 | 5.34 and 5.37 and 5.14 | 110% and 95.6% and 109% | 109% and 91.1% and 99.6% | 91.2% and 87.2% and 101% | 94.4% and 79.7% and 98% | 59.5% and 62.4% and 71.5% | 24.6% and 16.2% and 41.4% | – |
| CC1COCCN1c1cc(-c2ccnn2C)c2ccnc(-c3ccn[nH]3)c2n1 (stereo not given) | 7.47 and 7.44 and 7.34 | 51.9% and 54.7% and 68% | 10.5% and 10.1% and 13% | 3.44% and 3.12% and 2.94% | 2.43% and 2.64% and 1.91% | – | – | viability, T/C (compound 0.00316 µM): 82.9% and 88.1% and 101%; viability, T/C (compound 0.01 µM): 87.9% and 89.4% and 87.5% |
| CC1COCCN1c1cc(C2(S(C)(=N)=O)CC2)nc(-c2ccnc3[nH]ccc23)n1 (stereo not given) | 5.67 and 5.79 and 5.75 | 103% and 100% and 97% | 107% and 96.4% and 98.6% | 101% and 104% and 91.9% | 86.5% and 73.7% and 82.7% | 31.6% and 18.2% and 17.2% | 5.26% and 5.01% and 5.03% | – |
| CCN(c1cc(-c2ccc(CN3CCOCC3)cc2)cc(C(=O)NCc2c(C)cc(C)[nH]c2=O)c1C)C1CCOCC1 | < 5.52 | – | – | – | – | – | – | viability, T/C (compound 0.00949 µM): 99.4% and 113% and 105%; viability, T/C (compound 0.03 µM): 116% and 94.8% and 94.7%; viability, T/C (compound 0.0949 µM): 93% and 86.7% and 98.8%; viability, T/C (compound 0.3 µM): 89.7% and 91.3% and 78.9%; viability, T/C (compound 0.949 µM): 86.7% and 77.8% and 76.2%; viability, T/C (compound 3 µM): 72.8% and 67.7% and 80.9% |
| CC[C@@]1(O)C(=O)OCc2c1cc1n(c2=O)Cc2cc3c(CN(C)C)c(O)ccc3nc2-1 | 8.27 and 8.29 and 7.93 | 6.59% and 7.5% and 7.58% | 6.75% and 6.73% and 5.44% | – | – | – | – | viability, T/C (compound 0.000316 µM): 105% and 92.5% and 101%; viability, T/C (compound 0.001 µM): 101% and 96.7% and 108%; viability, T/C (compound 0.00316 µM): 65.5% and 69.2% and 88%; viability, T/C (compound 0.01 µM): 31.4% and 22.4% and 59.5% |
| CCc1c2c(nc3ccc(O)cc13)-c1cc3c(c(=O)n1C2)COC(=O)[C@]3(O)CC | > 9.02 | – | – | – | – | – | – | viability, T/C (compound 0.000949 µM): 17.5% and 17.7% and 9.88%; viability, T/C (compound 0.003 µM): 9.21% and 7.45% and 8.07%; viability, T/C (compound 0.00949 µM): 6.22% and 5.99% and 5.4%; viability, T/C (compound 0.03 µM): 4.21% and 4.52% and 3.14%; viability, T/C (compound 0.0949 µM): 2.53% and 2.06% and 1.76%; viability, T/C (compound 0.3 µM): 1.46% and 1.11% and 1.27% |
| COc1cc(C2c3cc4c(cc3C(OC3OC5COC(C)OC5C(O)C3O)C3COC(=O)C23)OCO4)cc(OC)c1O (stereo not given) | 6.21 and 6.11 and 6.40 | 107% and 84.7% and 91.2% | 96% and 92.5% and 87.4% | 78.1% and 72.5% and 59.1% | 29.6% and 44.8% and 14.3% | 10.7% and 9.52% and 9.14% | 8.19% and 5.47% and 7.82% | – |
| COc1cc(Nc2ncc3c(n2)-c2ccc(Cl)cc2C(c2c(F)cccc2OC)=NC3)ccc1C(=O)O | – | 53.5% and 54% and 51.9% | 43.2% and 52% and 43.9% | 48.8% and 56.9% and 53% | 42.7% and 45% and 41.8% | 38.3% and 53.3% and 41.6% | 37% (2×) and 39.3% | – |
| COc1ccc([C@@H](O)c2cc(-c3ncnc4cc(N5CCOCC5)ccc34)c(F)cc2Cl)nn1 | 5.07 and 5.06 and 5.09 | 94.6% and 87.4% and 102% | 106% and 92.4% and 99.4% | 89.7% and 96.4% and 93.8% | 92.1% and 84% and 75.6% | 72.1% and 75.7% and 68.1% | 46% and 46.8% and 45.7% | – |
